Laboratory results reported in patent US20020137929A1, “1 - (3-heterocyclylphenyl) isothiourea, -isourea, -guanidine and -amidine herbicidal agents” (Intellectual Property Department, BASF Aktiengesellschaft, priority 1998, published 2002).

What was measured:
ZEAMX (Corn, Field) [1] = assay: Preemergence herbicidal evaluation; assay type: in vivo, Zea mays; settings: rated 4-5 weeks after treatment
Method in brief: (§1)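 Each species is sown separately in potting soil over roughly an inch of soil before any emergence. The soil surface then receives an aqueous acetone spray delivering about 0.0156 to 0.500 kg/ha of compound. After four to five weeks, injury is scored from 0 to 9 relative to a control.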

ECHCG (Barnyardgrass) [2] = assay: Preemergence herbicidal evaluation; assay type: in vivo, Echinochloa crus-galli; settings: rated 4-5 weeks after treatment
Method in brief: as §1

ZEAMX (Corn, Field) [3] = assay: Postemergence herbicidal evaluation; assay type: in vivo, Zea mays
Method in brief: (§2)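 Two-week-old seedlings sprayed with compound in 50/50 acetone/water plus 0.5% TWEEN 20, at about 0.0156 to 0.500 kg/ha, nozzle at 40 psi. Kept in greenhouse; rated visually 4-5 weeks after treatment on a 0-9 scale versus control, repeat tests averaged.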

[4] = tested on: TRZAWR (Wheat, Winter, cv Riband); assay: Preemergence herbicidal evaluation; assay type: in vivo, Triticum aestivum; settings: rated 4-5 weeks after treatment
Method in brief: as §1

CASOB (Sicklepod) = assay: Preemergence herbicidal evaluation; assay type: in vivo, Cassia obtusifolia; settings: rated 4-5 weeks after treatment
Method in brief: as §1

ECHCG (Barnyardgrass) [5] = assay: Postemergence herbicidal evaluation; assay type: in vivo, Echinochloa crus-galli
Method in brief: as §2

ABUTH (Velvetleaf) [6] = assay: Postemergence herbicidal evaluation; assay type: in vivo, Abutilon theophrasti
Method in brief: as §2

[7] = tested on: IPOHE (Morningglory, Ivyleaf); assay: Preemergence herbicidal evaluation; assay type: in vivo, Ipomoea hederacea; settings: rated 4-5 weeks after treatment
Method in brief: as §1

ORYSAT (Rice, Tebonnet) = assay: Postemergence herbicidal evaluation; assay type: in vivo, Oryza sativa, (L.) Tebonnet
Method in brief: as §2

SETVI (Foxtail, Green) = assay: Postemergence herbicidal evaluation; assay type: in vivo, Setaria viridis
Method in brief: as §2

CYPIR (Rice Flatsedge) = assay: Postemergence weed control under flooded paddy conditions; assay type: in vivo, Cyperus iria; settings: postemergence weeds, 3-4 weeks after treatment
Method in brief: (§3)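 Herbicidal effect is judged by eye on a 0–9 scale versus control, 3–4 weeks after dosing. Dosing is into flood water kept 1.5–3 cm over the soil, at about 0.0313–0.500 kg/ha in aqueous/acetone 50/50 v/v, on 3–5 cm weeds and 1.5–2.5-leaf rice seedlings.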

[8] = tested on: IPOHE (Morningglory, Ivyleaf); assay: Postemergence herbicidal evaluation; assay type: in vivo, Ipomoea hederacea
Method in brief: as §2

[9] = tested on: CHEAL (Lambsquarters, Common); assay: Preemergence herbicidal evaluation; assay type: in vivo, Chenopodium album; settings: rated 4-5 weeks after treatment
Method in brief: as §1

[10] = tested on: GLXMAW (Soybean, Williams); assay: Preemergence herbicidal evaluation; assay type: in vivo, Glycine max, (L.) Merr. cv Williams; settings: rated 4-5 weeks after treatment
Method in brief: as §1

CYPSE (Flatsedge) = assay: Postemergence weed control under flooded paddy conditions; assay type: in vivo, Cyperus serotinus; settings: postemergence weeds, 3-4 weeks after treatment
Method in brief: as §3

ABUTH (Velvetleaf) [11] = assay: Preemergence herbicidal evaluation; assay type: in vivo, Abutilon theophrasti; settings: rated 4-5 weeks after treatment
Method in brief: as §1

[12] = tested on: CHEAL (Lambsquarters, Common); assay: Postemergence herbicidal evaluation; assay type: in vivo, Chenopodium album
Method in brief: as §2

CCOP(=O)(CN1C(=O)CSC1=Nc1cc(-n2c(=O)cc(C(F)(F)F)n(C)c2=O)c(F)cc1Cl)OCC [Compound 35, Diethyl {{2-{{2-chloro-5-[3,6-dihydro-3-methyl-2,6-dioxo-4-(trifluoromethyl)-1(2H)-pyrimidinyl]-4-fluorophenyl}imino}-4-oxo-3-thiazolidinyl}methyl}phosphonate]
Preemergence herbicidal rating ZEAMX (ZEAMX (Corn, Field) [1]; rate 0.0625 kg/ha): 0.0 | Preemergence herbicidal rating ZEAMX (ZEAMX (Corn, Field) [1]; rate 0.1250 kg/ha): 0.0 | Preemergence herbicidal rating ZEAMX (ZEAMX (Corn, Field) [1]; rate 0.2500 kg/ha): 0.0 | Preemergence herbicidal rating ECHCG (ECHCG (Barnyardgrass) [2]; rate 0.0625 kg/ha): 0.0 | Preemergence herbicidal rating ECHCG (ECHCG (Barnyardgrass) [2]; rate 0.1250 kg/ha): 0.0 | Preemergence herbicidal rating ECHCG (ECHCG (Barnyardgrass) [2]; rate 0.2500 kg/ha): 0.0 | Postemergence herbicidal rating ZEAMX (ZEAMX (Corn, Field) [3]; Rate 0.0158 kg/ha): 3.5 | Postemergence herbicidal rating ZEAMX (ZEAMX (Corn, Field) [3]; Rate 0.0315 kg/ha): 3.5 | Postemergence herbicidal rating ZEAMX (ZEAMX (Corn, Field) [3]; Rate 0.0630 kg/ha): 4.5 | Preemergence herbicidal rating TRZAWR ([4]; rate 0.0625 kg/ha): 0.0 | Preemergence herbicidal rating TRZAWR ([4]; rate 0.1250 kg/ha): 1.0 | Preemergence herbicidal rating TRZAWR ([4]; rate 0.2500 kg/ha): 3.0 | Preemergence herbicidal rating CASOB (CASOB (Sicklepod); rate 0.0625 kg/ha): 0.0 | Preemergence herbicidal rating CASOB (CASOB (Sicklepod); rate 0.1250 kg/ha): 0.0 | Preemergence herbicidal rating CASOB (CASOB (Sicklepod); rate 0.2500 kg/ha): 3.0 | Postemergence herbicidal rating ECHCG (ECHCG (Barnyardgrass) [5]; Rate 0.0158 kg/ha): 0.0 | Postemergence herbicidal rating ECHCG (ECHCG (Barnyardgrass) [5]; Rate 0.0315 kg/ha): 0.0 | Postemergence herbicidal rating ECHCG (ECHCG (Barnyardgrass) [5]; Rate 0.0630 kg/ha): 1.0 | Postemergence herbicidal rating ABUTH (ABUTH (Velvetleaf) [6]; Rate 0.0158 kg/ha): 9.0 | Postemergence herbicidal rating ABUTH (ABUTH (Velvetleaf) [6]; Rate 0.0315 kg/ha): 9.0 | Postemergence herbicidal rating ABUTH (ABUTH (Velvetleaf) [6]; Rate 0.0630 kg/ha): 9.0 | Preemergence herbicidal rating IPOHE ([7]; rate 0.0625 kg/ha): 0.0 | Preemergence herbicidal rating IPOHE ([7]; rate 0.1250 kg/ha): 3.0 | Preemergence herbicidal rating IPOHE ([7]; rate 0.2500 kg/ha): 9.0 | Postemergence herbicidal rating ORYSAT (ORYSAT (Rice, Tebonnet); Rate 0.0158 kg/ha): 2.0 | Postemergence herbicidal rating ORYSAT (ORYSAT (Rice, Tebonnet); Rate 0.0315 kg/ha): 3.0 | Postemergence herbicidal rating ORYSAT (ORYSAT (Rice, Tebonnet); Rate 0.0630 kg/ha): 3.5 | Postemergence herbicidal rating SETVI (SETVI (Foxtail, Green); Rate 0.0158 kg/ha): 0.0 | Postemergence herbicidal rating SETVI (SETVI (Foxtail, Green); Rate 0.0315 kg/ha): 2.0 | Postemergence herbicidal rating SETVI (SETVI (Foxtail, Green); Rate 0.0630 kg/ha): 4.0 | Herbicidal rating CYPIR (CYPIR (Rice Flatsedge); rate 0.1250 kg/ha): 0.0 | Herbicidal rating CYPIR (CYPIR (Rice Flatsedge); rate 0.2500 kg/ha): 0.0 | Postemergence herbicidal rating IPOHE ([8]; Rate 0.0158 kg/ha): 9.0 | Postemergence herbicidal rating IPOHE ([8]; Rate 0.0315 kg/ha): 9.0 | Postemergence herbicidal rating IPOHE ([8]; Rate 0.0630 kg/ha): 9.0 | Preemergence herbicidal rating CHEAL ([9]; rate 0.0625 kg/ha): 9.0 | Preemergence herbicidal rating CHEAL ([9]; rate 0.1250 kg/ha): 9.0 | Preemergence herbicidal rating CHEAL ([9]; rate 0.2500 kg/ha): 9.0 | Preemergence herbicidal rating GLXMAW ([10]; rate 0.0625 kg/ha): 0.0 | Preemergence herbicidal rating GLXMAW ([10]; rate 0.1250 kg/ha): 0.0 | Preemergence herbicidal rating GLXMAW ([10]; rate 0.2500 kg/ha): 2.0 | Herbicidal rating CYPSE (CYPSE (Flatsedge); rate 0.1250 kg/ha): 0.0 | Herbicidal rating CYPSE (CYPSE (Flatsedge); rate 0.2500 kg/ha): 0.0 | Preemergence herbicidal rating ABUTH (ABUTH (Velvetleaf) [11]; rate 0.0625 kg/ha): 9.0 | Preemergence herbicidal rating ABUTH (ABUTH (Velvetleaf) [11]; rate 0.1250 kg/ha): 9.0 | Preemergence herbicidal rating ABUTH (ABUTH (Velvetleaf) [11]; rate 0.2500 kg/ha): 9.0 | Postemergence herbicidal rating CHEAL ([12]; Rate 0.0158 kg/ha): 7.0 | Postemergence herbicidal rating CHEAL ([12]; Rate 0.0315 kg/ha): 9.0 | Postemergence herbicidal rating CHEAL ([12]; Rate 0.0630 kg/ha): 9.0

CCOC(=O)CN1CCSC1=Nc1cc(-n2nc(C)n(C(F)F)c2=O)c(F)cc1Cl [Compound 36]
Preemergence herbicidal rating ZEAMX (ZEAMX (Corn, Field) [1]; rate 0.0625 kg/ha): 0.0 | Preemergence herbicidal rating ZEAMX (ZEAMX (Corn, Field) [1]; rate 0.1250 kg/ha): 3.0 | Preemergence herbicidal rating ZEAMX (ZEAMX (Corn, Field) [1]; rate 0.2500 kg/ha): 6.0 | Preemergence herbicidal rating ECHCG (ECHCG (Barnyardgrass) [2]; rate 0.0625 kg/ha): 0.0 | Preemergence herbicidal rating ECHCG (ECHCG (Barnyardgrass) [2]; rate 0.1250 kg/ha): 2.0 | Preemergence herbicidal rating ECHCG (ECHCG (Barnyardgrass) [2]; rate 0.2500 kg/ha): 6.0 | Postemergence herbicidal rating ZEAMX (ZEAMX (Corn, Field) [3]; Rate 0.0158 kg/ha): 4.5 | Postemergence herbicidal rating ZEAMX (ZEAMX (Corn, Field) [3]; Rate 0.0315 kg/ha): 6.0 | Postemergence herbicidal rating ZEAMX (ZEAMX (Corn, Field) [3]; Rate 0.0630 kg/ha): 7.5 | Preemergence herbicidal rating TRZAWR ([4]; rate 0.0625 kg/ha): 0.0 | Preemergence herbicidal rating TRZAWR ([4]; rate 0.1250 kg/ha): 1.0 | Preemergence herbicidal rating TRZAWR ([4]; rate 0.2500 kg/ha): 0.0 | Preemergence herbicidal rating CASOB (CASOB (Sicklepod); rate 0.0625 kg/ha): 0.0 | Preemergence herbicidal rating CASOB (CASOB (Sicklepod); rate 0.2500 kg/ha): 0.0 | Postemergence herbicidal rating ECHCG (ECHCG (Barnyardgrass) [5]; Rate 0.0158 kg/ha): 0.0 | Postemergence herbicidal rating ECHCG (ECHCG (Barnyardgrass) [5]; Rate 0.0315 kg/ha): 2.0 | Postemergence herbicidal rating ECHCG (ECHCG (Barnyardgrass) [5]; Rate 0.0630 kg/ha): 9.0 | Postemergence herbicidal rating ABUTH (ABUTH (Velvetleaf) [6]; Rate 0.0158 kg/ha): 9.0 | Postemergence herbicidal rating ABUTH (ABUTH (Velvetleaf) [6]; Rate 0.0315 kg/ha): 9.0 | Postemergence herbicidal rating ABUTH (ABUTH (Velvetleaf) [6]; Rate 0.0630 kg/ha): 9.0 | Preemergence herbicidal rating IPOHE ([7]; rate 0.0625 kg/ha): 0.0 | Preemergence herbicidal rating IPOHE ([7]; rate 0.1250 kg/ha): 0.0 | Preemergence herbicidal rating IPOHE ([7]; rate 0.2500 kg/ha): 0.0 | Postemergence herbicidal rating ORYSAT (ORYSAT (Rice, Tebonnet); Rate 0.0158 kg/ha): 0.5 | Postemergence herbicidal rating ORYSAT (ORYSAT (Rice, Tebonnet); Rate 0.0315 kg/ha): 1.0 | Postemergence herbicidal rating ORYSAT (ORYSAT (Rice, Tebonnet); Rate 0.0630 kg/ha): 6.0 | Postemergence herbicidal rating SETVI (SETVI (Foxtail, Green); Rate 0.0158 kg/ha): 3.0 | Postemergence herbicidal rating SETVI (SETVI (Foxtail, Green); Rate 0.0315 kg/ha): 9.0 | Postemergence herbicidal rating SETVI (SETVI (Foxtail, Green); Rate 0.0630 kg/ha): 9.0 | Herbicidal rating CYPIR (CYPIR (Rice Flatsedge); rate 0.0313 kg/ha): 0.0 | Herbicidal rating CYPIR (CYPIR (Rice Flatsedge); rate 0.0625 kg/ha): 5.0 | Herbicidal rating CYPIR (CYPIR (Rice Flatsedge); rate 0.1250 kg/ha): 5.0 | Herbicidal rating CYPIR (CYPIR (Rice Flatsedge); rate 0.2500 kg/ha): 9.0 | Postemergence herbicidal rating IPOHE ([8]; Rate 0.0158 kg/ha): 9.0 | Postemergence herbicidal rating IPOHE ([8]; Rate 0.0315 kg/ha): 9.0 | Postemergence herbicidal rating IPOHE ([8]; Rate 0.0630 kg/ha): 9.0 | Preemergence herbicidal rating CHEAL ([9]; rate 0.0625 kg/ha): 0.0 | Preemergence herbicidal rating CHEAL ([9]; rate 0.1250 kg/ha): 9.0 | Preemergence herbicidal rating CHEAL ([9]; rate 0.2500 kg/ha): 9.0 | Preemergence herbicidal rating GLXMAW ([10]; rate 0.0625 kg/ha): 0.0 | Preemergence herbicidal rating GLXMAW ([10]; rate 0.1250 kg/ha): 0.0 | Preemergence herbicidal rating GLXMAW ([10]; rate 0.2500 kg/ha): 0.0 | Herbicidal rating CYPSE (CYPSE (Flatsedge); rate 0.0313 kg/ha): 0.0 | Herbicidal rating CYPSE (CYPSE (Flatsedge); rate 0.0625 kg/ha): 0.0 | Herbicidal rating CYPSE (CYPSE (Flatsedge); rate 0.1250 kg/ha): 2.0 | Herbicidal rating CYPSE (CYPSE (Flatsedge); rate 0.2500 kg/ha): 4.0 | Preemergence herbicidal rating ABUTH (ABUTH (Velvetleaf) [11]; rate 0.0625 kg/ha): 9.0 | Preemergence herbicidal rating ABUTH (ABUTH (Velvetleaf) [11]; rate 0.1250 kg/ha): 9.0 | Preemergence herbicidal rating ABUTH (ABUTH (Velvetleaf) [11]; rate 0.2500 kg/ha): 9.0 | Postemergence herbicidal rating CHEAL ([12]; Rate 0.0158 kg/ha): 2.0 | Postemergence herbicidal rating CHEAL ([12]; Rate 0.0315 kg/ha): 3.0 | Postemergence herbicidal rating CHEAL ([12]; Rate 0.0630 kg/ha): 4.0
